Data taken from paper PMC10996616 (bioRxiv, 2024).

Experiments:
[1] = molecular target: PaFS (full-length fusicoccadiene synthase) (Diaporthe amygdali, UniProt A2PZA5); assay: EnzChek pyrophosphate release, steady-state kinetics, A360; assay type: biochemical; settings: Mg2+ 2.5 mM, pH 7.5; cyclization to fusicoccadiene; cyclase domain
[2] = molecular target: PaFSCY (individual cyclase domain of fusicoccadiene synthase) (Diaporthe amygdali, UniProt A2PZA5); assay: as above; assay type: biochemical; settings: Mg2+ 2.5 mM, pH 7.5; cyclization to fusicoccadiene
Chain of PaFSCY (individual cyclase domain of fusicoccadiene synthase) (A2PZA5 1-344): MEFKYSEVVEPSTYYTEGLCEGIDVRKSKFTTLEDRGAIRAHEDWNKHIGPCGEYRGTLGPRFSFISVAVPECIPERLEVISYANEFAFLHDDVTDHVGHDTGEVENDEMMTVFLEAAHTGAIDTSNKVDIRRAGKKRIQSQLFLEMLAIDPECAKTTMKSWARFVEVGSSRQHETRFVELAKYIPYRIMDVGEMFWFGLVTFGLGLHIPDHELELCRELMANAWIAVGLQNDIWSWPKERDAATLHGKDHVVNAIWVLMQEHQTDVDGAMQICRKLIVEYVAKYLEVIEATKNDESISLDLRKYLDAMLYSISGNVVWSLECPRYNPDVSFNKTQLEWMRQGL

Chain of PaFS (full-length fusicoccadiene synthase) (A2PZA5 whole entry, the tested form may be a part): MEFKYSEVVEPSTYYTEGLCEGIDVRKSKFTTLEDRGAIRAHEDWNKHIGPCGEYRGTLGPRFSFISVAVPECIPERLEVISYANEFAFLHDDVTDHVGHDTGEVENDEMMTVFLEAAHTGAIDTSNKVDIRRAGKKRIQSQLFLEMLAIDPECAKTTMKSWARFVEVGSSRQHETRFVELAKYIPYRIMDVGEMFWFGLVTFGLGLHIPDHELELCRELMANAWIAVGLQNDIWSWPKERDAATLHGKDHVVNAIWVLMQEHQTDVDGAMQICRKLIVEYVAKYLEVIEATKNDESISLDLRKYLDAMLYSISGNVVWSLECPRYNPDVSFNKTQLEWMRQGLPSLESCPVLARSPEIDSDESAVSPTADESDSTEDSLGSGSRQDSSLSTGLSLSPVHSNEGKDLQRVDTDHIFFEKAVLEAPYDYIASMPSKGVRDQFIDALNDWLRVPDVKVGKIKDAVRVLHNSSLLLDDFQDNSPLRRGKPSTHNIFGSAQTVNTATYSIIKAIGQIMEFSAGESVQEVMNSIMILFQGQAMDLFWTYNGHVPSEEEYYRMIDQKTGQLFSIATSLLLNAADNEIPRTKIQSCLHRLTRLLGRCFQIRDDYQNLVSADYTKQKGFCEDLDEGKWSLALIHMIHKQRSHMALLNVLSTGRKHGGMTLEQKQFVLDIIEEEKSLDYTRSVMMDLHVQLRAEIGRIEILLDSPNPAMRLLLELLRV

CC(C)=CCC/C(C)=C/CC/C(C)=C/CC/C(C)=C/COP(=O)(O)OP(=O)(O)O [GGPP, geranylgeranyl diphosphate]
KM [1]: (PaFS, PaFSLL, and PaFSCY) are most efficient
KM [2]: (PaFS, PaFSLL, and PaFSCY) are most efficient
